{"source": "patent US20230181535A1", "about": "“UBIQUITIN-LIGASE INHIBITORS FOR THE TREATMENT OF CANCER” (FUNDACIÓN PROFESOR NOVOA SANTOS, priority 2020, published 2023)", "key": {"[1]": {"system": "Colon cancer HCT116 cells", "experiment": "BrdU proliferation assay, HCT116", "type": "cell-based, human", "settings": "48 h", "procedure": "For BrdU assays, 1×10^4 of indicated cells were plated per well into a 96-well plate. After 24 h, cells were treated with the indicated inhibitors for 48 h. Three independent experiments were plated with six replicates per each condition. Cells were treated with […] BrdU for 2 h. BrdU incorporation into newly synthesized DNA was measured using a cell proliferation colorimetric immunoassay kit according to the manufacturer's instructions (Roche, Switzerland). Results are expressed as mean±S.D. Results are represented as percentage of positive cells (mean±S.D) of three independent experiments."}, "Hakai-MDCK cells": {"system": "Hakai-MDCK cells", "experiment": "Soft agar-colony formation assay, Hakai-MDCK", "type": "cell-based", "settings": "21 days", "procedure": "Soft agar-colony formation assay was performed on 12-well plates in triplicates at a density of 5×10^3 MDCK and MDCK-Hakai cells/well, or 12×10^3 HT29 cells/well. Cells were seeded in medium with 0.5% low-melting agarose over a layer with 0.75% low-melting agarose (Lonza Rockland, Me., USA). Cells were treated with the indicated inhibitors and DMSO was used as vehicle. Treatment was refreshed every 3 days and, after 21 days for MDCK and MDCK-Hakai cells or 28 days for HT29 cells, number of colonies were quantified. Quantification of five randomly-selected fields of each condition was photographed with a Nikon Eclipse-TI microscope (objective 4×). Experiments were conducted with three triplicates and were repeated three times. Data are represented as mean±SD."}, "LoVo cells": {"system": "LoVo cells", "experiment": "Invasion assay, LoVo", "type": "cell-based", "settings": "treated 48 h", "procedure": "For invasion assays, cells were treated with Hakin-1 or DMSO as vehicle for 48 h using 1% FBS during the last 24 hours. 3×10^5 MDCK, MDCK-Hakai or LoVo cells were seeded in a cell invasion chamber (Cell invasion assay kit, Chemicon International) containing medium with 2% FBS. After 72 hours for MDCK and MDCK-Hakai Invasive and 16 h for LoVo cells, invasive cells invaded that reach the lower chamber containing 30% FBS were fixed and stained with crystal violet (Sigma Aldrich, St Louis, Mo.) following the manufacturer's specifications. For migration assays, HT29 cells were cultured with Hakin-1 or DMSO as vehicle for 48 h, using medium without serum the last 24 h. In the cell migration chamber were seeded 3×10^5 HT29 cells (Cell migration kit, Millipore, Bedford, Mass.) containing medium without serum. After 16 h, migrated cells in the lower chamber containing serum with 30% FBS were stained with crystal violet and counted following the manufacturer's specifications. For both invasion and migration assays cells were counted in five fields photographed with an Olympus microscope using a 20× objective, experiments were performed in triplicates for each condition and the assays were repeated at least three times. Results are expressed as mean±SD."}, "HT-29 cells [2]": {"system": "HT-29 cells", "experiment": "Phase-contrast cell phenotype, HT-29", "type": "cell-based, human", "procedure": "MDCK, HEK293T, HepG2, MCF7 and ACHN cells were cultured in Dulbecco's Modified Eagles Medium (DMEM). MDCK stably expressing Hakai cells (Hakai-MDCK) were previously reported and were growth in DMEM with G418 (800 μg/ml). […] LoVo and PC-3 cells were cultured in F-12K Medium (Kaighn's Modification of Ham's F-12 Medium) and HT-29 and HCT116 cells in McCoy's 5a Medium Modified. 5637 cells were cultured in RPMI medium. All culture media were supplemented with 1% penicillin/streptomycin and 10% of heat-inactivated fetal bovine serum (FBS) at 37° C. in a humidified incubator with 5% CO2. Cells were monthly tested for mycoplasma contamination and used only for 1-3 months after defrosted. LoVo and HT29 cells were authenticated with the StemElite ID system (Promega). For phase-contrast images, culture cells were photographed with a Nikon Eclipse-TI microscope."}, "[3]": {"system": "mesenchymal Hakai-MDCK cells", "experiment": "E-cadherin protein levels in Hakai-MDCK cells", "type": "cell-based", "settings": "Hakai-MDCK cells (no basal E-cadherin)", "procedure": "For western blot analysis, cells were treated with the indicated inhibitors for 48 h and the whole cell extracts were obtained as described previously. Twenty micrograms of lysates were resolved on a 10% polyacrilamide SDS-PAGE followed by western blot analysis performed as previously described. For immunofluorescence assays cells were grown for 24 h on glass coverslips and treated with the indicated inhibitors for 48 h. Cells were fixed with 4% PFA for 15 min, permeabilized with 0.5% […] and incubated with E-cadherin antibody for 2 h. Coverslips were incubated with fluorescein-tagged secondary antibody (Dakopatts, Sweden) for […]. Finally coverslips were mounted with ProLong Gold antifade reagent (LifeTech, UK) and images were taken in epifluorescence microscope (Olympus) using 40× objective. […] One set of SIM Synthetic Focus images were taken in the DAPI channel for Hoechst 33342 staining, and another set of images were taken in the FITC channel for anti-E-cadherin-AlexaFluor488 labeling and analysed by Structured Illumination Microscopy (SIM™) platform to image the cells and Vala's CyteSeer® Cell-Cell Junction Algorithm to quantify the degree of expression and intracellular location of E-cadherin Vala's CyteSeer® Software can also measure relative DNA content by analyzing Total Integrated Intensity (TII) of the Nuclear Image (Ni) on the Nuclear Mask (Nm). […]"}, "HT-29 cells [4]": {"system": "HT-29 cells", "experiment": "Western blotting of EMT markers, HT-29", "type": "cell-based, human", "settings": "HT-29; 48 h", "procedure": "For western blot analysis, cells were treated with the indicated inhibitors for 48 h and the whole cell extracts were obtained as described previously. Twenty micrograms of lysates were resolved on a 10% polyacrilamide SDS-PAGE followed by western blot analysis performed as previously described. For immunofluorescence assays cells were grown for 24 h on glass coverslips and treated with the indicated inhibitors for 48 h. Cells were fixed with 4% PFA for 15 min, permeabilized with 0.5% […] and incubated with E-cadherin antibody for 2 h. Coverslips were incubated with fluorescein-tagged secondary antibody (Dakopatts, Sweden) for […]. Finally coverslips were mounted with ProLong Gold antifade reagent (LifeTech, UK) and images were taken in epifluorescence microscope (Olympus) using 40× objective. Immunofluorescence of E-cadherin and DNA content analysis for FIGS. 22-23 were performed culturing of HT-29 human colorectal adenocarcinoma cell line in 384-well plates with densities of 3,000 cells per well in a total volume of 25 μl. After the completion of the staining, four images (2×2 array) of each well were taken with Vala Sciences' SIM™ with a 20× objective. Each image was acquired as a SIM Synthetic Focus with a z-stack range of 6 μm with 1 μm steps. The SIM Synthetic Focus feature will compile a “best focus” images from multiple images. One set of SIM Synthetic Focus images were taken in the DAPI channel for Hoechst 33342 staining, and another set of images were taken in the FITC channel for anti-E-cadherin-AlexaFluor488 labeling and analysed by Structured Illumination Microscopy (SIM™) platform to image the cells and Vala's CyteSeer® Cell-Cell Junction Algorithm to quantify the degree of expression and intracellular location of E-cadherin Vala's CyteSeer® Software can also measure relative DNA content by analyzing Total Integrated Intensity (TII) of the Nuclear Image (Ni) on the Nuclear Mask (Nm). This analysis was performed by Vala Science. Twenty compounds from were assayed in a “blinded” manner, at 2 test concentrations in 6 replicate wells for first assay and 3 replicate for second assay."}}, "data": [{"compound": "O=C(O)c1ccc(-n2nnnc2SCC(O)c2ccc([N+](=O)[O-])cc2)cc1", "note": "(centres unmarked) [MKH1]", "values": [{"measurement": "cell proliferation (BrdU)", "setting": "[1]", "value": "inhibit cell proliferation"}]}, {"compound": "O=C(O)c1ccc(-n2nnnc2SCC(=O)c2ccc([N+](=O)[O-])cc2)cc1", "note": "[Hakin-1, 4-(5-[2-(4-nitrophenyl)-2-oxoethyl]thiol-1H-tetrazol-1-yl)benzoic acid]", "values": [{"measurement": "colony formation in soft agar", "setting": "Hakai-MDCK cells", "value": "robust inhibition of colony formation"}, {"measurement": "cell invasion", "setting": "LoVo cells", "value": "strongly reduced cell invasion"}, {"measurement": "cell phenotype by phase contrast", "setting": "HT-29 cells [2]", "value": "modestly induce an epithelial phenotype"}, {"measurement": "E-cadherin protein levels", "setting": "[3]", "value": "no recovery was detected"}, {"measurement": "Cortactin expression levels (western blotting)", "setting": "HT-29 cells [4]", "value": "increase expression levels"}, {"measurement": "E-cadherin levels (western blotting)", "setting": "HT-29 cells [4]", "value": "increase E-cadherin levels"}, {"measurement": "Vimentin mesenchymal marker (western blotting)", "setting": "HT-29 cells [4]", "value": "reduced"}]}]}
